# Assay results reported in patent publication US20190070183A1, “Targeting Casein Kinase-1 and PI3K/AKT/mTOR Pathways for Treatment of c-Myc-Overexpressing Cancers, Organ Transplant Associated Complications and Autoimmune Diseases” (The Trustees of Columbia University in the City of New York, priority 2015, published 2019).
# What was measured:
# primary AITL cells = assay: Cytotoxicity in primary AITL cells; format: cell-based, human
# Experimental: (§1) Blood from consented patients was drawn into 10 ml EDTA-vacutainers. Blood was mixed with PBS containing 2 mM EDTA and 0.5% BSA in a 1:2 Ratio Blood to PBS. Next fifteen milliliters of Ficoll-Paque Plus (GE Healthcare) was pipetted into 50 ml centrifuge tubes, with blood-PBS mixture layered on top. Tubes were centrifuged at 400×g for 40 min at room temperature with no brake. PBMC's in the buffy coat were collected by pipette and washed in EDTA-BSA PBS. Supernatant was removed and 10 ml ACK Lysis Buffer (Thermo Fisher) was used to remove Erythrocytes. Pellets were again washed in EDTA-BSA PBS, resuspended and counted via automated cell counter. Cytotoxicity and Western Blotting assays were performed according to protocol.
# [1] = system: PI3K-AKT-mTOR-eIF4F-Myc signal cascade in LY10 cells; conditions: LY10, 24 h, PI3K inhibitors 3 μM, proteasome inhibitors 2 nM, single or combined
# primary SLL cells = assay: Cytotoxicity in primary SLL cells (Cell Titer Glo); format: cell-based, human; conditions: 48 hours, 2.5, 5, and 7.5 nM
# DLBCL cell line LY10 = assay: Growth inhibition / viability of LY10 cells (CellTiter Glo), single agents and combinations, Bliss synergy; format: cell-based, human; conditions: LY10, 24 h, single agent
# CK1ε [2] = target: T1, CK1ε (Homo sapiens, UniProt P49674); assay: CK1ε kinase activity assay (ADP-Glo, Promega)
# Experimental: CK1ε kinase activity was determined using the CK1ε enzyme system from Promega, according to the manufacturer's instruction. […] The luminescent signal positively correlates with ADP amount and kinase activity.
# Next, the CK1ε inhibiting activity of the above compounds was experimentally determined using the ADP-Glo™ Kinase Assay kit from Promega and recombinant CK1ε expressed by baculovirus in Sf9 insect cells.
# CK1ε [3] = target: T1, CK1ε; assay: CK1ε autophosphorylation assay (calyculin A, Western blot); format: cell-based; design: Full-length recombinant human CK1ε (CK1epsilon) was expressed by baculovirus in Sf9 insect cells; GST (N); purchased Promega; host or cells: Sf9 insect cells (baculovirus)
# [4] = system: phosphorylation of 4EBP1 and protein level of c-Myc in LY7 cells; assay: Western blot, LY7 cells; format: cell-based, human; conditions: for expression of c-Myc at 24 h: single agents
# Western blot, LY7 cells = format: cell-based, human; conditions: LY7 and LY10, 24 h
# CK1ε [5] = target: T1, CK1ε; assay: Kinome profiling (Reaction Biology, radioisotope filter binding); conditions: cell free, 1 μM
# Experimental: Kinome profiling was performed using the radioisotope filter binding assay from Reaction Biology.
# patients with DLBCL [6] = conditions: 9 patients; Westin 2014; cited from earlier work
# DLBCL cell line LY7 = assay: LY7 viability (Cell Titer Glo); format: cell-based, human; conditions: for activity inhibiting LY7 lymphoma cells (viability): 24 h, 10-50 μM, single agents
# caspase 3/7 = assay: Activation of caspase 3/7 in LY10; format: cell-based, human; conditions: LY10, 24 h
# From the text: FIG. 3. […] FIG. 3L-N: PARP cleavage.
# [7] = system: primary CLL and MCL cells; assay: Cytotoxicity in primary CLL and MCL cells; conditions: 48 hours
# Experimental: Pharmacological activities of PI3K and proteasome inhibitors in primary lymphoma cells. […] Cytotoxicity. Primary cells were isolated by ficoll gradient separation from three patients with SLL (FIG. 6A & FIG. 6B), CLL (FIG. 6C & FIG. 6D), MCL (FIG. 6E & FIG. 6F) respectively. The SLL cells were from pleural fluid, and the CLL and MCL cells were from peripheral blood. The cells were incubated with the experimental drugs as single agents and in combinations for 48 hours. The viability was determined by Cell Titer Glo, and presented as a function of each treatment conditions, as a percentage of the untreated control.
# as §1
# [8] = system: cap dependent translation downstream of the 5′ UTR of c-MYC; assay: Bicistronic luciferase reporter assay for c-Myc 5'UTR driven translation in LY7; format: cell-based, human; conditions: LY7 stably expressing reporter, 24 hr, 25 μM
# MOLT-4 cell line = assay: Subcutaneous xenograft model of T-ALL (MOLT-4) in NOD/SCID mice; format: in vivo; conditions: daily oral 150 mg/kg, day 24, p<0.001
# patients with DLBCL [9] = assay: Clinical trials in patients with DLBCL; format: in vivo, human
# [10] = system: phosphorylated AKT at Ser473; assay: Inhibition of S473 p-AKT in serum-starved leukemia and lymphoma cell lines; format: cell-based, human; conditions: 1 μM, 4 hours
# T1 sequence (P49674 whole entry): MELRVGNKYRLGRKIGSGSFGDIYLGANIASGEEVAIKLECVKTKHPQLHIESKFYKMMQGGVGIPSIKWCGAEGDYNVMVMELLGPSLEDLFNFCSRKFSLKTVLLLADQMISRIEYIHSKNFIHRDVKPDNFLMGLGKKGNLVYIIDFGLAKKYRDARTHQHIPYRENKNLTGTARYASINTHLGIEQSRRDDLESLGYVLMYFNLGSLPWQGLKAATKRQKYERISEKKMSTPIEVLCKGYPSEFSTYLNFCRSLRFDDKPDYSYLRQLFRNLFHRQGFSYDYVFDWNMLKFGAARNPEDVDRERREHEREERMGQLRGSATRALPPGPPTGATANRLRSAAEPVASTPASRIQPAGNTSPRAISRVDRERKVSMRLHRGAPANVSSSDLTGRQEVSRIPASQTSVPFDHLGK
smiles,measurement,setting,value
"CC(C)C[C@H](NC(=O)[C@H](Cc1ccccc1)NC(=O)c1cnccn1)B(O)O [Bortezomib, [(1R)-3-methyl-1-({(2S)-3-phenyl-2-[(pyrazin-2-ylcarbonyl)amino]propanoyl}amino)butyl]boronic acid]",single agent activity in AITL,primary AITL cells,more potent than carfilzomib
same,inhibition of phosphorylation of 4EBP1,[1],marginal or no inhibition
same,inhibition of phosphorylation of AKT,[1],comparable and modest inhibition
same,inhibition of primary cells,primary SLL cells,10-80%
same,percentage of growth inhibition,DLBCL cell line LY10; 1 to 3 nM,did not produce significant inhibition
same,percentage of growth inhibition,DLBCL cell line LY10; 4 to 8 nM,42-90%
CC(C)Oc1ccc(-c2nn([C@@H](C)c3nc4cccc(F)c4c(=O)n3-c3ccccc3)c3ncnc(N)c23)cc1F [CUX-03173],IC50,CK1ε [2],9.4 µM
same,autophosphorylation of CK1ε,"CK1ε [3]; LY7, 15 μM, then calyculin A",inhibited
same,reduction of protein level of c-Myc,"[4]; LY7, 24 h",more effective than idelalisib and PF4800567
same,inhibition of protein level of c-Myc,"[4]; LY7 and LY10, 24 h",as potent as TGR-1202
same,beta-catenin level,"Western blot, LY7 cells",inhibited beta-catenin
"CC(C)C[C@H](NC(=O)[C@H](CCc1ccccc1)NC(=O)CN1CCOCC1)C(=O)N[C@@H](Cc1ccccc1)C(=O)N[C@@H](CC(C)C)C(=O)[C@@]1(C)CO1 [Carfilzomib, (S)-4-methyl-N—((S)-1-(((S)-4-methyl-1-((R)-2-methyloxiran-2-yl)-1-oxopentan-2-yl)amino)-1-oxo-3-phenylpropan-2-yl)-2-((S)-2-(2-morpholinoacetamido)-4-phenylbutanamido)pentanamide]",inhibition of phosphorylation of 4EBP1,[1],marginal or no inhibition
same,inhibition of phosphorylation of AKT,[1],comparable and modest inhibition
same,inhibition of primary cells,primary SLL cells,10-90%
same,percentage of growth inhibition,DLBCL cell line LY10; 1 to 2 nM,up to 35%
CC(Nc1ncnc2[nH]cnc12)c1cc2cccc(Cl)c2c(=O)n1-c1ccccc1 (stereo not drawn) [IPI-145],inhibition of kinase activity of CK1 epsilon,CK1ε [5],not observed
CC[C@H](Nc1ncnc2nc[nH]c12)c1nc2cccc(F)c2c(=O)n1-c1ccccc1 [Idelalisib],single agent activity in AITL,primary AITL cells,more effective than TGR-1202
same,IC50,CK1ε [2],> 50 µM
same,inhibition of phosphorylation of 4EBP1,[1],moderately inhibit
same,inhibition of phosphorylation of AKT,[1],more effective than TGR-1202
same,inhibition of kinase activity of CK1 epsilon,CK1ε [5],not observed
same,suppression of phosphorylation of 4EBP1 and protein level of c-Myc,"[4]; LY7, 6 hours, 25-50 μM",only at the concentration of 50 μM
same,expression of c-Myc at 24 h,"[4]; LY7, 24 h",rebounded
same,responses in patients with DLBCL,patients with DLBCL [6],did not produce any responses
same,activity inhibiting LY7 lymphoma cells (viability),DLBCL cell line LY7,only mild and comparable activity
same,effect on caspase activation caused by bortezomib,caspase 3/7; 5 μM added to bortezomib,failed to augment
same,enhancement of cytotoxicity of bortezomib,[7],did not enhance
Nc1ncnc2c1c(COc1cccc(Cl)c1)nn2C1CCOCC1 [PF4800567],IC50,CK1ε [2],0.0074 µM
same,autophosphorylation of CK1ε (up-shifting of the CK1ε band),"CK1ε [3]; LY7, 1 μM, 1 h pretreatment then calyculin A",no up-shifting
same,suppression of phosphorylation of 4EBP1 and protein level of c-Myc,"[4]; LY7, 6 hours, 25-50 μM",only at the concentration of 50 μM
same,phosphorylation of p70S6K1,"[4]; LY7, 24 h",substantially increased
same,reduction of ratio of LucR/LucF by 50%,[8],not
same,activity inhibiting LY7 lymphoma cells (viability),DLBCL cell line LY7,only mild and comparable activity
CC(C)n1nc(-c2cc3cc(O)ccc3[nH]2)c2c(N)ncnc21 [PP242],phosphorylation of p70S6K1,"[4]; LY7, 24 h",potently inhibited
same,phosphorylation of 4EBP1 at S65,"[4]; LY7, 24 h, 750 nM",markedly inhibited
same,level of c-Myc,"[4]; LY7, 24 h, PP242 treatment",moderately reduced
CC(C)Oc1ccc(-c2nn([C@@H](C)c3oc4ccc(F)cc4c(=O)c3-c3cccc(F)c3)c3ncnc(N)c23)cc1F [TGR-1202],tumor response in xenograft,MOLT-4 cell line,significantly shrank the tumors
same,IC50,CK1ε [2],6 µM
same,partial response in patients with DLBCL,patients with DLBCL [9],3 of 14
same,inhibition of phosphorylation of 4EBP1,[1],moderately inhibit
same,reduction of phosphorylation of AKT (Ser473),[10],43-87%
same,suppression of phosphorylation of 4EBP1 and protein level of c-Myc,"[4]; LY7, 6 h, 15-50 μM",more potent than idelalisib and PF4800567
same,suppression of phosphorylation of 4EBP1 and protein level of c-Myc,"[4]; LY7, 6 hours, 25-50 μM",potently suppressed
same,reduction of protein level of c-Myc,"[4]; LY7, 24 h",more effective than idelalisib and PF4800567
same,inhibition of phosphorylation of 4EBP1 and protein level of c-Myc,"[4]; LY7, 24 h, 25 μM",highly effective
same,expression of c-Myc at 24 h,"[4]; LY7, 24 h",not relieved
same,beta-catenin level,"Western blot, LY7 cells",inhibited beta-catenin
same,activity inhibiting LY7 lymphoma cells (viability),DLBCL cell line LY7,significantly more effective than idelalisib and PF4800567
same,potency in cytotoxicity assay,"DLBCL cell line LY7; LY7, 24 h",most potent among these compounds
same,synergy with PP242 inhibiting phosphorylation of 4EBP1 at T70 and cell viability,"DLBCL cell line LY7; LY7, PP […], other drugs 5 and 15 μM",synergistic with PP242
same,effect on caspase 3/7 activation by carfilzomib,caspase 3/7; 1 μM added to carfilzomib,markedly enhanced
